# Biological target: T1, Phosphatidylinositol 4,5-bisphosphate 3-kinase catalytic subunit delta isoform (Homo sapiens, UniProt O00329)
# T1 sequence (O00329 whole entry): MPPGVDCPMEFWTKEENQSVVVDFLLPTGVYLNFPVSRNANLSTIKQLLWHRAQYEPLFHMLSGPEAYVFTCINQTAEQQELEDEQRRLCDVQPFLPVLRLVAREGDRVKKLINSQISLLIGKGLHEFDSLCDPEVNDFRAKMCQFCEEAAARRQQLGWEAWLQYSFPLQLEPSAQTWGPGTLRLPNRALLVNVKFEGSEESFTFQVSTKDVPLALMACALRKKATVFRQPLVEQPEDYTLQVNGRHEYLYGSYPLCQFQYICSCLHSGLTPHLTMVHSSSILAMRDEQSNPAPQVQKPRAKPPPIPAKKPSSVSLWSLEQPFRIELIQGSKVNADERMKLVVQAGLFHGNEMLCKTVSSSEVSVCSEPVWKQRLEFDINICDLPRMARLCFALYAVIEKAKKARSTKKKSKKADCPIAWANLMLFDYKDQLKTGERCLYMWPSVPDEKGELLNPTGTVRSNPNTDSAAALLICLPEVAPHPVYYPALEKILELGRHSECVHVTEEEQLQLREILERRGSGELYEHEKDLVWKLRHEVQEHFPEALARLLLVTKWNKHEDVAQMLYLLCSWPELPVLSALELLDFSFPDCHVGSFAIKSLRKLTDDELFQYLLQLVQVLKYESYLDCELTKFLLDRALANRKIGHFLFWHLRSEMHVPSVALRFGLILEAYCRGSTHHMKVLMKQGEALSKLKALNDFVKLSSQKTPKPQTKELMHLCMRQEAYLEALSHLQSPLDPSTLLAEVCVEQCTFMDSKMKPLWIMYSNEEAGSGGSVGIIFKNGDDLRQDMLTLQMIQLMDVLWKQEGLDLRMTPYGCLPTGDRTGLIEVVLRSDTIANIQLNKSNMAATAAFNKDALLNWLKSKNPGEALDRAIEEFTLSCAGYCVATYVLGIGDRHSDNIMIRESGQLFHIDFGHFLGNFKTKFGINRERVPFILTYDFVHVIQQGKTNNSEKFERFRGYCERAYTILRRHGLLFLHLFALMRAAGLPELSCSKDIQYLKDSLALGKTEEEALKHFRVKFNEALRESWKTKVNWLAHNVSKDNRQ
# Assay: PI3Kdelta Scintillation Proximity A3 Assay
# Procedure: [γ-33P]ATP (10 mCi/mL) was purchased from Perkin-Elmer (Waltham, Mass.). […] PI3Kδ (p110δ/p85α) was purchased from Millipore (Bedford, Mass.). ATP, MgCl2, DTT, EDTA, MOPS and CHAPS were purchased from Sigma-Aldrich (St. Louis, Mo.). Wheat Germ Agglutinin (WGA) YSi SPA Scintillation Beads was purchased from GE healthcare life sciences (Piscataway, N.J.).The kinase reaction was conducted in polystyrene 384-well matrix white plate from Thermo Fisher Scientific in a final volume of 25 μL. Inhibitors were first diluted serially in DMSO and added to the plate wells before the addition of other reaction components. The final concentration of DMSO in the assay was 0.5%. The PI3K assays were carried out at room temperature in 20 mM MOPS, pH 6.7, 10 mM MgCl2, 5 mM DTT and CHAPS 0.03%. Reactions were initiated by the addition of ATP, the final reaction mixture consisted of 20 μM PIP2, 20 μM ATP, 0.2 μCi [γ-33P] ATP, 4 nM PI3Kδ. […] 25 mM EDTA, 400 μM ATP. The final concentration of SPA beads was 1.0 mg/mL. After the plate sealing, plates were shaken overnight at room temperature and centrifuged at 1800 rpm for 10 minutes, the radioactivity of the product was determined by scintillation counting on Topcount (Perkin-Elmer). IC50 determination was performed by fitting the curve of percent control activity versus the log of the inhibitor concentration using the GraphPad Prism 3.0 software.
smiles,measurement,value
"COc1c(C(C)n2nc(C3C=NNC3)c3c(N)ncnc32)cc(Cl)c(C)c1C1CN(CC#N)C1 (stereo unspecified) [US10376513, Example 126]",IC50,< 10 nM
